We go through 2 compounds from patent US20240197719A1 (priority 2018, published 2024).

For data set [1] the following is noted: in vivo.
The conditions of data set [2]: in vivo, iv; cited from earlier work.
The conditions of data set [3]: in vivo; cited from earlier work.

As to `O=C1CC[C@@]2(O)[C@H]3Cc4ccc(O)c5c4[C@@]2(CCN3CC2CC2)[C@H]1O5` [naltrexone], the AUC result in data set [1] is on record as “increased significantly”.

For `C=C1CC[C@@]2(O)[C@H]3Cc4ccc(O)c5c4[C@@]2(CCN3CC2CC2)[C@H]1O5` [Nalmefene, 17-cyclopropylmethyl-4,5α-epoxy-6-methylenemorphinan-3,14-diol], the reported half-life in data set [2] is 8 to 10.8 h. In data set [3], the “incidence of adverse events” value is reported as “less than 1%” and the “incidence of common adverse reactions” value is given as “greater than 1%”.
